Results published in PubChem BioAssay (NCI).
Several values for one entry are separate records, joined by “and”; a condition that tells them apart may be missing. Equal entries are not always repeated.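 Where inhibition never reached the appropriate level, the endpoint shown equals the highest concentration tested. Otherwise, values were interpolated linearly from a five-concentration, 48-hour dose response in 96-well plates. Abbreviation: GI50, concentration required for 50% inhibition of growth. TGI marks complete inhibition of growth.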 Activity calls are given as the source filed them. No stated cut-off is given here; in the data, active means GI50 below about 0.43 µM; inactive means the rest.

Tests used:
Test in all cases: NCI-60 cell line screen, 48 h
[1] = system: SNB-19 CNS
[2] = system: SK-MEL-5 melanoma
[3] = system: HCT-116 colon
[4] = system: OVCAR-5 ovarian
[5] = system: SF-539 CNS
[6] = system: SF-295 CNS
[7] = system: UACC-62 melanoma
[8] = system: DU-145 prostate
[9] = system: OVCAR-8 ovarian
[10] = system: HS 578T breast
[11] = system: SF-268 CNS
[12] = system: HOP-62 NSCLC
[13] = system: SR leukemia
[14] = system: RPMI-8226 leukemia
[15] = system: HT29 colon
[16] = system: HOP-92 NSCLC
[17] = system: MOLT-4 leukemia
[18] = system: MDA-N
[19] = system: OVCAR-4 ovarian
[20] = system: NCI-H522 lung
[21] = system: OVCAR-3 ovarian
[22] = system: NCI-H226 lung
[23] = system: COLO 205 colon
[24] = system: KM12 colon
[25] = system: SK-MEL-28 melanoma
[26] = system: HL-60(TB) leukemia
[27] = system: HCT-15 colon
[28] = system: NCI-H23 lung
[29] = system: MCF7 breast
[30] = system: SW-620 colon
[31] = system: PC-3 prostate
[32] = system: NCI-H460 lung
[33] = system: LOX IMVI melanoma
[34] = system: ACHN renal
[35] = system: SK-MEL-2 melanoma
[36] = system: TK-10 renal
[37] = system: HCC-2998 colon
[38] = system: A549 NSCLC
[39] = system: UACC-257 melanoma
[40] = system: IGROV1 ovarian
[41] = system: MALME-3M melanoma
[42] = system: BT-549 breast
[43] = system: T-47D breast
[44] = system: MDA-MB-435
[45] = system: SN12C renal
[46] = system: NCI/ADR-RES ovarian
[47] = system: RXF 393 renal
[48] = system: U251 CNS
[49] = system: M14 melanoma
[50] = system: A498 renal
[51] = system: EKVX NSCLC
[52] = system: K-562 leukemia
[53] = system: UO-31 renal
[54] = system: MDA-MB-231 breast
[55] = system: SK-OV-3 ovarian
[56] = system: 786-0 renal
[57] = system: XF 498 CNS
[58] = system: SNB-78 CNS
[59] = system: SNB-75 CNS
[60] = system: DMS 114 small cell lung

CC[C@H]1C=CCC[C@@]2(C[C@@H]3CC[C@@H]4[C@H](C(=O)OCCCCCCCCCCCCCCCC(=O)N(CCCN)C[C@@H](O)CCN)[C@]5(CCC[C@@H](C)O5)NC(=[N+]34)N2)O1
TGI [1]: 1.27 µM | TGI [2]: 0.173 µM | TGI [3]: 1.16 µM | TGI [4]: 4.39 µM | TGI [5]: 2.37 µM | TGI [6]: 3.52 µM | TGI [7]: 0.239 µM | TGI [8]: > 10 µM | TGI [9]: 7.13 µM | TGI [10]: 2.88 µM | TGI [11]: 2.41 µM | TGI [12]: 2.94 µM | TGI [13]: 0.397 µM | TGI [14]: 0.755 µM | TGI [15]: 1.23 µM | TGI [16]: 1.01 µM | TGI [17]: 0.524 µM | TGI [18]: 1.14 µM | TGI [19]: > 5.94 µM | TGI [20]: 0.573 µM | TGI [21]: > 10 µM | TGI [22]: 3.66 µM | TGI [23]: 1.65 µM | TGI [24]: 1.58 µM | TGI [25]: 2.9 µM | TGI [26]: 1.36 µM | TGI [27]: > 10 µM | TGI [28]: 2.87 µM | TGI [29]: 1.71 µM | TGI [30]: 3.87 µM | TGI [31]: 1.96 µM | TGI [32]: 2.15 µM | TGI [33]: 0.721 µM | TGI [34]: > 4.73 µM | TGI [35]: 0.673 µM | TGI [36]: 4.52 µM | TGI [37]: 0.793 µM | TGI [38]: 1.25 µM | TGI [39]: 0.573 µM | TGI [40]: > 3.82 µM | TGI [41]: 1.26 µM | TGI [42]: 2.61 µM | TGI [43]: 5.56 µM | TGI [44]: 0.469 µM | TGI [45]: > 5.62 µM | TGI [46]: > 10 µM | TGI [47]: 2.38 µM | TGI [48]: 1.68 µM | TGI [49]: 0.0599 µM | TGI [50]: 1.74 µM | TGI [51]: 2.49 µM | TGI [52]: 0.565 µM | TGI [53]: 1.64 µM | TGI [54]: 5.97 µM | TGI [55]: 4.77 µM | TGI [56]: 1.04 µM

CCOC(=O)c1sc2c(C(=O)OCC)n3ccccc3c2c1N
GI50 [1]: 23.9 µM | TGI [1]: 90.9 µM and 65.5 µM | GI50 [3]: 35.9 µM | GI50 [5]: 22.3 µM | TGI [5]: 75.4 µM | GI50 [57]: 33.9 µM | TGI [57]: 48 µM | GI50 [9]: 52.1 µM | GI50 [11]: 36.6 µM | GI50 [12]: 22.5 µM | TGI [12]: 57.3 µM and 70.7 µM | outcome [13]: inactive | outcome [14]: inactive | GI50 [16]: 23.8 µM | TGI [16]: 55.2 µM | outcome [17]: inactive | GI50 [20]: 24.3 µM | TGI [20]: 63 µM and 68 µM | GI50 [58]: 27.3 µM | GI50 [28]: 74.2 µM | GI50 [34]: 89.4 µM | TGI [59]: 99.1 µM | GI50 [45]: 73.5 µM | TGI [47]: 50 µM | GI50 [60]: 47.5 µM | GI50 [51]: 70 µM | GI50 [53]: 49.2 µM | TGI [53]: 67.1 µM
